Data taken from PMC6514812, “[^18F]Fluoroethyltriazolyl Monocyclam Derivatives as Imaging Probes for the Chemokine Receptor CXCR4” (Molecules, 2019).
Where two headings read alike, the source gives them in different places.

Legend:
CXCR4 [1] = biological target: T1, CXCR4 (Homo sapiens, UniProt P61073); test: Competition binding assay vs [^68Ga]Pentixafor in PC3-CXCR4 cells
T1 construct: expressed in transfected cells; host or cells: PC3 (human prostate cancer) cells stably transduced with CXCR4
Experimental: PC3-CXCR4 cells were plated in 12-well plates at a density of 500,000 cells per well and incubated for 48 h at 37 °C/5% CO2. Prior to the binding assay the cells were incubated in fresh media and 370–555 kBq of [^68Ga]Pentixafor or [^18F]RPS-544 was added to each well. The corresponding concentration of [^68Ga]Pentixafor in each well was 100 nM, and the concentration of [^18F]RPS-544 was approximately 5 pM. Then non-radioactive ligands were added to give a final ligand concentration in the range 0.001–10,000 nM. A total of eight concentrations were studied, and each concentration was tested in triplicate. The cells were incubated for 60 min at 37 °C/5% CO2. The media was removed under suction, the cells were washed with cold PBS 1X and detached and transferred to tubes for counting in 1 M NaOH. The cells were counted in a Wizard^2 Gamma Counter (PerkinElmer, Waltham, MA, USA). Non-specific binding was subtracted, and the IC50 values were determined by assuming a simple competitive binding interaction and fitting the data to a sigmoidal Hill plot in Origin 9.0 (OriginLab, Northampton, MA, USA). Potencies are expressed as IC50 ± standard deviation (Supplemental Data, Figure S7).

CXCR4 [2] = biological target: T1, CXCR4; test: Saturation binding assay in PC3-CXCR4 cells
Experimental: To determine the dissociation constants, saturation binding assays were performed in the PC3-CXCR4 cells. The cells were plated as described above, and approximately 5 nM of the radioligand was added to each well. Then the corresponding non-radioactive ligand was added to give a final concentration in the range 0.001–10,000 nM. A total of eight concentrations were tested, and each concentration was tested in triplicate. The samples were washed and counted as described above. Non-specific binding was subtracted, and Kd values were determined by performing a nonlinear one site binding curve fit with equation y = (Bmax · x)/(Kd + x). Values are expressed as Kd ± standard deviation (Supplemental Data, Figure S8).

PC3-CXCR4 cells = test: Cell-associated activity in PC3-CXCR4 cells; format: cell-based, human; conditions: 1 h
Experimental: Maximum cell-associated activity was calculated by subtracting the cell uptake of the radioactive ligand at the highest non-radioactive ligand concentration of 10 µM (which we considered to be non-specific uptake/binding) from the cell uptake at the lowest non-radioactive ligand concentration of 10^−5 µM.

[3] = system: PC3-CXCR4 xenograft tumors; test: µPET/CT titration of tumor uptake by co-injection of AMD-3100 (block50); format: in vivo, BALB/c mice; conditions: co-injection of AMD-3100, µPET/CT 1 h p.i.; listed as [^18F]RPS-544
Experimental: All animal studies were approved by the Institutional Animal Care and Use Committee of Weill Cornell Medicine (Protocol Number: 2015-0066) and were undertaken in accordance with the guidelines set forth by the USPHS Policy on Humane Care and Use of Laboratory Animals. Animals were housed under standard conditions in approved facilities with 12 h light/dark cycles. Food and water was provided ad libitum throughout the course of the studies. Hairless 6-to-8-week old male BALB/c inbred athymic nude mice (Jackson Laboratory, Bar Harbor, ME, USA) were inoculated bilaterally with 0.2 mL of a 1:1 mixture of 10^7 PC3-CXCR4 cells in PBS and Matrigel (Corning, Tewksbury, MA, USA) subcutaneously in the left shoulder and 0.2 mL of a 1:1 mixture of 10^7 PC3-WT cells in PBS and Matrigel subcutaneously in the right shoulder. […]
For the imaging studies, the tumor-bearing mice (n = 2/compound) were injected intravenously with 100 μL of a 9% v/v EtOH/saline solution containing approximately 3.7 MBq of the radioligand. […] Tumor uptake was quantified by the following procedure: CT-aided regions of interest were drawn, and tissue concentration was determined by comparison with a 3 %ID/cm^3 standard included in the field of view. Uptake was expressed as percent injected dose per centimeter cubed (%ID/cm^3) ± standard deviation.

[4] = system: PC3-CXCR4 xenograft tumors; parameters: method as in PMID 29544122; conditions: cited from earlier work

T1 sequence (P61073 whole entry): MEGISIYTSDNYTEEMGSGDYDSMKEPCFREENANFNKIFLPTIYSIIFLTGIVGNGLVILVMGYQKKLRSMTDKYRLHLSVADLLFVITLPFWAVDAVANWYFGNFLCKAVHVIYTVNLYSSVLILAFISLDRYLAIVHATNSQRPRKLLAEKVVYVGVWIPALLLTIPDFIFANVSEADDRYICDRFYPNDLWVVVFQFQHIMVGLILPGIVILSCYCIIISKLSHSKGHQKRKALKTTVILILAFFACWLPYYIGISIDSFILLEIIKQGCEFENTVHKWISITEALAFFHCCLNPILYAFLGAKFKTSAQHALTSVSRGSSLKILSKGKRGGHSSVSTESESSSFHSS

Fc1cccc(CNCc2ccc(CN3CCCNCCNCCCNCC3)cc2)n1 [RPS-544]
IC50 (CXCR4 [1]; vs 100 nM [^68Ga]Pentixafor, PC3-CXCR4 cells, 60 min 37 °C): 6.3 ± 0.8 nM
Hill Slope, Competitive Binding Experiment (CXCR4 [1]; vs [^68Ga]Pentixafor, value ± SD): 1.13 ± 0.47
Kd (CXCR4 [2]; saturation binding, PC3-CXCR4 cells): 5.1 ± 1 nM
Hill Slope, Saturation Binding Experiment (CXCR4 [2]; value ± SD): 1.06 ± 0.11
Cell-Associated Activity (PC3-CXCR4 cells): 8.2 ± 0.3 %IA
Block50: dose of AMD-3100 reducing uptake in PC3-CXCR4 tumors by 50% [3]: 0.17 ± 0.06 mg/kg
PC3-CXCR4 Tumor-to-Tissue Ratio Blood ([4]; 1 h p.i.): 2.5 ± 0.4
PC3-CXCR4 Tumor-to-Tissue Ratio Bone ([4]; 1 h p.i.): 4.2 ± 1.2
PC3-CXCR4 Tumor-to-Tissue Ratio Kidneys ([4]; 1 h p.i.): 0.1 ± 0.1
PC3-CXCR4 Tumor-to-Tissue Ratio Liver ([4]; 1 h p.i.): 0.1 ± 0.1
PC3-CXCR4 Tumor-to-Tissue Ratio Lungs ([4]; 1 h p.i.): 2.0 ± 1.2
PC3-CXCR4 Tumor-to-Tissue Ratio Muscle ([4]; 1 h p.i.): 11.1 ± 0.4
PC3-CXCR4 Tumor-to-Tissue Ratio PC3-WT ([4]; 1 h p.i.): 3.3 ± 1.3
PC3-CXCR4 Tumor Uptake ([4]; 1 h p.i., previously published data): 3.4 ± 1.2 %ID/g
PC3-CXCR4 Tumor-to-Tissue Ratio Blood ([4]; 2 h p.i.): 4.8 ± 0.1
PC3-CXCR4 Tumor-to-Tissue Ratio Bone ([4]; 2 h p.i.): 2.9 ± 0.3
PC3-CXCR4 Tumor-to-Tissue Ratio Kidneys ([4]; 2 h p.i.): 0.1 ± 0.1
PC3-CXCR4 Tumor-to-Tissue Ratio Liver ([4]; 2 h p.i.): 0.1 ± 0.1
PC3-CXCR4 Tumor-to-Tissue Ratio Lungs ([4]; 2 h p.i.): 1.7 ± 0.3
PC3-CXCR4 Tumor-to-Tissue Ratio Muscle ([4]; 2 h p.i.): 6.7 ± 0.2
PC3-CXCR4 Tumor-to-Tissue Ratio PC3-WT ([4]; 2 h p.i.): 2.6 ± 0.3
